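Growth conditions: 96-well plates. Treatment: test compound, 48 hours, 5 concentrations. Analysis: linear interpolation between bracketing concentrations; unreached endpoints set to highest concentration. GI50 is the concentration that inhibits growth by half. TGI: concentration producing complete growth inhibition.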
What was measured:
Test in all cases: DTP human tumour cell line panel, 48 h
NCI-H522 lung = test system: NCI-H522 lung
OVCAR-8 ovarian = test system: OVCAR-8 ovarian
IGROV1 ovarian = test system: IGROV1 ovarian
U251 CNS = test system: U251 CNS
SN12C renal = test system: SN12C renal
A549 NSCLC = test system: A549 NSCLC
EKVX NSCLC = test system: EKVX NSCLC
HS 578T breast = test system: HS 578T breast
LXFL 529 NSCLC = test system: LXFL 529 NSCLC
M19-MEL melanoma = test system: M19-MEL melanoma

## CN(C)c1cc2ccccc2oc1=O
NCI-H522 lung
  TGI: > 100 µM
OVCAR-8 ovarian
  TGI: > 100 µM
IGROV1 ovarian
  TGI: > 100 µM
U251 CNS
  TGI: > 100 µM
SN12C renal
  TGI: > 100 µM
A549 NSCLC
  TGI: > 100 µM
EKVX NSCLC
  TGI: > 100 µM
HS 578T breast
  TGI: > 100 µM

## Nc1ncn([C@@H]2S[C@H](CO)[C@@H](O)[C@@H]2F)c(=O)n1
NCI-H522 lung
  GI50: > 100 µM
  TGI: > 100 µM
OVCAR-8 ovarian
  GI50: 0.409 µM
  TGI: > 100 µM
IGROV1 ovarian
  GI50: 3.43 µM
  TGI: > 100 µM
U251 CNS
  GI50: 13.9 µM
  TGI: > 100 µM
SN12C renal
  GI50: 0.364 µM
  TGI: > 100 µM
A549 NSCLC
  GI50: 0.512 µM
  TGI: > 100 µM
EKVX NSCLC
  GI50: 8.97 µM
  TGI: > 100 µM
HS 578T breast
  GI50: > 100 µM
  TGI: > 100 µM

## O=S(=O)(/N=c1\scc(-c2ccccc2)n1-c1ccccc1)c1ccc(N2N=C3c4ccccc4CC3C2c2ccc(Cl)cc2)cc1 (configuration not stated)
NCI-H522 lung
  GI50: 22.7 µM
  TGI: 82.3 µM
OVCAR-8 ovarian
  GI50: 36.1 µM
  TGI: > 100 µM
IGROV1 ovarian
  GI50: 25.7 µM
  TGI: 85.1 µM
U251 CNS
  GI50: 26.1 µM
  TGI: 75.5 µM
SN12C renal
  GI50: 50.8 µM
  TGI: > 100 µM
A549 NSCLC
  GI50: 31.4 µM
  TGI: > 100 µM
EKVX NSCLC
  GI50: 61.1 µM
  TGI: > 100 µM
HS 578T breast
  GI50: 33 µM
  TGI: > 100 µM

## Cn1ccnc1CCc1c(Cl)cccc1Cl
NCI-H522 lung
  TGI: > 100 µM
OVCAR-8 ovarian
  TGI: > 100 µM
LXFL 529 NSCLC
  TGI: > 100 µM
IGROV1 ovarian
  TGI: > 100 µM
U251 CNS
  TGI: > 100 µM
SN12C renal
  TGI: > 100 µM
A549 NSCLC
  TGI: > 100 µM
M19-MEL melanoma
  TGI: > 100 µM

## O=C1C2C3C=C4c5ccccc5N(c5ccccc5)C4(C2C(=O)N1c1ccccc1)C1C(=O)N(c2ccccc2)C(=O)C31 (configuration not stated)
OVCAR-8 ovarian
  TGI: > 100 µM
LXFL 529 NSCLC
  TGI: > 100 µM
U251 CNS
  TGI: > 100 µM
SN12C renal
  TGI: > 100 µM
A549 NSCLC
  TGI: > 100 µM
M19-MEL melanoma
  TGI: > 100 µM

## CC1=C2C(=C[C@@](C)(CO)[C@@H]2OC(=O)N(C)CCN(C)C(=O)OC(C)(C)C)C(=O)[C@](C)(O)C12CC2
NCI-H522 lung
  GI50: 6.27 µM
  TGI: 25.2 µM
OVCAR-8 ovarian
  GI50: 6.51 µM
  TGI: 45.7 µM
IGROV1 ovarian
  GI50: 1.97 µM
  TGI: 18.8 µM
U251 CNS
  GI50: 5.25 µM
  TGI: 46.1 µM
SN12C renal
  GI50: 11.1 µM
  TGI: > 50 µM
A549 NSCLC
  GI50: 5.88 µM
  TGI: > 50 µM
EKVX NSCLC
  GI50: 10.7 µM
  TGI: 29.1 µM
HS 578T breast
  GI50: 15.3 µM
  TGI: > 50 µM

## Cn1c(=O)c(N=Nc2c(=O)n(C)c(=O)n3c2[nH]c2ccccc23)c2[nH]c3ccccc3n2c1=O
NCI-H522 lung
  TGI: > 100 µM
OVCAR-8 ovarian
  TGI: > 100 µM
LXFL 529 NSCLC
  TGI: > 100 µM
IGROV1 ovarian
  TGI: > 100 µM
U251 CNS
  TGI: > 100 µM
A549 NSCLC
  TGI: > 100 µM
EKVX NSCLC
  TGI: > 100 µM
M19-MEL melanoma
  TGI: > 100 µM

## COc1cc(/C=C/C(=O)/C=C/c2cc(OC)c3c(c2)OCO3)cc2c1OCO2
NCI-H522 lung
  GI50: 14.5 µM
  TGI: > 100 µM
OVCAR-8 ovarian
  GI50: 2.83 µM
  TGI: 12.9 µM
IGROV1 ovarian
  GI50: 4.78 µM
  TGI: > 100 µM
U251 CNS
  GI50: 2.19 µM
  TGI: 6.45 µM
SN12C renal
  GI50: 30.9 µM
  TGI: > 100 µM
A549 NSCLC
  GI50: 3.05 µM
  TGI: 15.1 µM
EKVX NSCLC
  GI50: > 100 µM
  TGI: > 100 µM
HS 578T breast
  GI50: 95.3 µM
  TGI: > 100 µM

## O=C(N/N=C/c1ccccc1O)N/N=C/c1ccccc1O
NCI-H522 lung
  TGI: > 100 µM
OVCAR-8 ovarian
  TGI: > 100 µM
LXFL 529 NSCLC
  TGI: > 100 µM
IGROV1 ovarian
  TGI: > 100 µM
U251 CNS
  TGI: > 100 µM
SN12C renal
  TGI: > 100 µM
A549 NSCLC
  TGI: > 100 µM
EKVX NSCLC
  TGI: > 100 µM
M19-MEL melanoma
  TGI: > 100 µM

## COc1ccc2c(c1)C(=O)/C(=C/c1cccc(OCC(=O)c3ccccc3)c1)CC2
NCI-H522 lung
  GI50: 8.84 µM
  TGI: > 100 µM
OVCAR-8 ovarian
  GI50: 44.1 µM
  TGI: > 100 µM
IGROV1 ovarian
  GI50: 4.19 µM
  TGI: > 100 µM
U251 CNS
  GI50: 16.8 µM
  TGI: > 100 µM
SN12C renal
  GI50: 61 µM
  TGI: > 100 µM
A549 NSCLC
  GI50: 36.6 µM
  TGI: > 100 µM
EKVX NSCLC
  GI50: 13.9 µM
  TGI: > 100 µM
HS 578T breast
  GI50: 43.7 µM
  TGI: > 100 µM

## c1cc[c]([Sn][c]2ccccc2)cc1
NCI-H522 lung
  GI50: 14.1 µM
  TGI: 32.7 µM
OVCAR-8 ovarian
  GI50: 24 µM
  TGI: 58.8 µM
LXFL 529 NSCLC
  GI50: 16.8 µM
  TGI: 33.6 µM
IGROV1 ovarian
  GI50: 38.9 µM
  TGI: > 100 µM
U251 CNS
  GI50: 19.4 µM
  TGI: 42 µM
SN12C renal
  GI50: 20 µM
  TGI: 42.1 µM
A549 NSCLC
  GI50: 21.5 µM
  TGI: 51.5 µM
EKVX NSCLC
  GI50: 28.3 µM
  TGI: > 61.2 µM

## O=C(Oc1cccnc1)c1cccnc1Nc1ccnc(C(F)(F)F)c1
NCI-H522 lung
  GI50: 14.5 µM
  TGI: > 100 µM
OVCAR-8 ovarian
  GI50: 64.9 µM
  TGI: > 100 µM
IGROV1 ovarian
  GI50: 9.51 µM
  TGI: > 100 µM
U251 CNS
  GI50: 14.3 µM
  TGI: 47.3 µM
SN12C renal
  GI50: 6.48 µM
  TGI: > 100 µM
A549 NSCLC
  GI50: > 100 µM
  TGI: > 100 µM
EKVX NSCLC
  GI50: 51.3 µM
  TGI: > 100 µM
HS 578T breast
  GI50: 32.2 µM
  TGI: > 100 µM

## O=C(NCC1CC1)c1ccc(-c2cccc(C(=O)NC3CC3)c2)cc1
NCI-H522 lung
  GI50: > 25 µM
  TGI: > 25 µM
OVCAR-8 ovarian
  GI50: > 25 µM
  TGI: > 25 µM
IGROV1 ovarian
  GI50: > 25 µM
  TGI: > 25 µM
U251 CNS
  GI50: > 25 µM
  TGI: > 25 µM
SN12C renal
  GI50: > 25 µM
  TGI: > 25 µM
A549 NSCLC
  GI50: > 25 µM
  TGI: > 25 µM
EKVX NSCLC
  GI50: > 25 µM
  TGI: > 25 µM
HS 578T breast
  GI50: > 25 µM
  TGI: > 25 µM

## O=C(NCCCOC(=O)CCCCCCCCC(=O)OCCCNC(=O)NC(=O)c1c[nH]c(=O)[nH]c1=O)NC(=O)c1c[nH]c(=O)[nH]c1=O
OVCAR-8 ovarian
  TGI: > 100 µM
LXFL 529 NSCLC
  TGI: > 100 µM
IGROV1 ovarian
  TGI: > 100 µM
U251 CNS
  TGI: > 100 µM
SN12C renal
  TGI: > 100 µM
A549 NSCLC
  TGI: > 100 µM
EKVX NSCLC
  TGI: > 100 µM
M19-MEL melanoma
  TGI: > 100 µM

## CCc1c2c(nc3ccc(OCc4ccc(B(O)O)cc4)cc13)-c1cc3c(c(=O)n1C2)COC(=O)[C@]3(O)CC
NCI-H522 lung
  GI50: < 0.0183 µM
OVCAR-8 ovarian
  GI50: 0.0195 µM
  TGI: > 32.1 µM
IGROV1 ovarian
  GI50: 0.161 µM
  TGI: > 33.7 µM
U251 CNS
  GI50: < 0.01 µM
SN12C renal
  GI50: < 0.013 µM
  TGI: > 100 µM
A549 NSCLC
  GI50: 0.0681 µM
  TGI: > 32.3 µM
EKVX NSCLC
  GI50: 0.614 µM
  TGI: > 64 µM
HS 578T breast
  GI50: 0.752 µM
  TGI: > 100 µM

## COc1cc(Cl)cc(=O)c(O)c1OC
NCI-H522 lung
  TGI: > 64.3 µM
OVCAR-8 ovarian
  TGI: > 100 µM
LXFL 529 NSCLC
  TGI: > 100 µM
U251 CNS
  TGI: > 100 µM
SN12C renal
  TGI: > 100 µM
EKVX NSCLC
  TGI: > 91.8 µM
M19-MEL melanoma
  TGI: > 100 µM

## Clc1ccc(-c2cn3ccnc3c(-c3ccc(Cl)cc3)n2)cc1
NCI-H522 lung
  GI50: > 100 µM
  TGI: > 100 µM
OVCAR-8 ovarian
  GI50: 16 µM
  TGI: > 100 µM
IGROV1 ovarian
  GI50: 21 µM
  TGI: > 100 µM
U251 CNS
  GI50: 12.9 µM
  TGI: 57.4 µM
SN12C renal
  GI50: 16.7 µM
  TGI: 95.1 µM
A549 NSCLC
  GI50: 8.31 µM
  TGI: > 100 µM
EKVX NSCLC
  GI50: 31.9 µM
  TGI: > 100 µM
HS 578T breast
  GI50: 26.3 µM
  TGI: 92.4 µM

— PubChem BioAssay (NCI)
